ChEMBL document CHEMBL5143599, “Unraveling the Design and Discovery of c-Jun N-Terminal Kinase Inhibitors and Their Therapeutic Potential in Human Diseases” (J Med Chem, 2022)
Values belong to the molecule of their own block, whether it stands above or below them. Non-standard residues stand in square brackets, D forms with d. Residues, ends and D or L forms follow the SMILES beside them. Ahx = NCCCCCC(=O)O

What was measured:
[1] = target: T1, Mitogen-activated protein kinase 10 (Homo sapiens, UniProt P53779); assay: Inhibition of JNK3 (unknown origin)
[2] = target: Leucine-rich repeat serine/threonine-protein kinase 2 (Homo sapiens, UniProt Q5S007); assay: Inhibition of LRRK2 (unknown origin)
[3] = target: T2, c-Jun N-terminal kinase, JNK (Homo sapiens, UniProt P45983+P53779+P45984); assay: Inhibition of c-Jun phosphorylation in human A-375 cells; format: cell-based
[4] = target: T2, c-Jun N-terminal kinase, JNK; assay: Inhibition of c-Jun phosphorylation in human HeLa cells; format: cell-based
[5] = target: T1, Mitogen-activated protein kinase 10; assay: Inhibition of JNK3 (unknown origin) using GST-c-jun (1-221) as substrate by scintillation counter analysis
[6] = target: T3, Mitogen-activated protein kinase 8 (Homo sapiens, UniProt P45983); assay: Inhibition of JNK1 (unknown origin) using GST-c-jun (1-221) as substrate by scintillation counter analysis
[7] = target: Mitogen-activated protein kinase 9 (Homo sapiens, UniProt P45984); assay: Inhibition of JNK2 (unknown origin) using GST-c-jun (1-221) as substrate by scintillation counter analysis
[8] = target: Mitogen-activated protein kinase 14 (Homo sapiens, UniProt Q16539); assay: Inhibition of p38alpha (unknown origin)
[9] = target: T1, Mitogen-activated protein kinase 10; assay: Inhibition of JNK3 (unknown origin) irradiated with 400 nm light
[10] = target: T1, Mitogen-activated protein kinase 10; assay: Inhibition of JNK3 (unknown origin) in dark
[11] = target: T3, Mitogen-activated protein kinase 8; assay: Inhibition of JNK1 (unknown origin)
[12] = target: T1, Mitogen-activated protein kinase 10; assay: Inhibition of JNK3 (unknown origin) using biotinylated FL-ATF-2 as substrate incubated for 15 mins by HTRF assay
[13] = target: T3, Mitogen-activated protein kinase 8; assay: Inhibition of JNK1 (unknown origin) using biotinylated FL-ATF-2 as substrate incubated for 15 mins by HTRF assay
[14] = target: T3, Mitogen-activated protein kinase 8; assay: Inhibition of JNK1 (unknown origin) incubated for 1 hr by TR-FRET assay
[15] = Inhibition of transformation of H-RAS induced mouse JB6 C1 41 cells at 5 uM; format: functional, JB6 Cl 41-5a; parameters: scale not given: the % may be the effect or the level left
[16] = target: Mitogen-activated protein kinase 8 (Mus musculus, UniProt Q91Y86); assay: Inhibition of JNK1 in mouse JB6 C1 41 cell lysate incubated for 1 hr relative to control; format: subcellular, JB6 Cl 41-5a
[17] = Antitumor activity against UVB-induced skin cancer SKH-1 mouse model assessed as reduction in tumor growth at 20 nmol, top relative to control; format: functional, Tumor cell line; parameters: scale not given: the % may be the effect or the level left
[18] = Antitumor activity against UVB-induced skin cancer SKH-1 mouse model assessed as reduction in tumor growth at 4 nmol, top relative to control; format: functional, Tumor cell line; parameters: scale not given: the % may be the effect or the level left

T1 sequence (P53779 whole entry): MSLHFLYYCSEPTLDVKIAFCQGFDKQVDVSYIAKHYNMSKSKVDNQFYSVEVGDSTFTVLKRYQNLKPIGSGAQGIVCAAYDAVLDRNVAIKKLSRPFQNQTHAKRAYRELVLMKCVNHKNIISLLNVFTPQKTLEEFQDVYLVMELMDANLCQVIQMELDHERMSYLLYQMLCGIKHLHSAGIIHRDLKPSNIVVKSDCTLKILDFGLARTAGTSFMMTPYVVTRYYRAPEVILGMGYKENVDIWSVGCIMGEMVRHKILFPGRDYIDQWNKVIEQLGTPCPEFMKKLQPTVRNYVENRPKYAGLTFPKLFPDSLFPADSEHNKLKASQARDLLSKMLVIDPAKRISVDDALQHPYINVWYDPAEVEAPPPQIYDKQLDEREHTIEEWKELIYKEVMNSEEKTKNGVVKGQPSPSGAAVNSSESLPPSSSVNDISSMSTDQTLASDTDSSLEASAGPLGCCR
T3 sequence (P45983 whole entry): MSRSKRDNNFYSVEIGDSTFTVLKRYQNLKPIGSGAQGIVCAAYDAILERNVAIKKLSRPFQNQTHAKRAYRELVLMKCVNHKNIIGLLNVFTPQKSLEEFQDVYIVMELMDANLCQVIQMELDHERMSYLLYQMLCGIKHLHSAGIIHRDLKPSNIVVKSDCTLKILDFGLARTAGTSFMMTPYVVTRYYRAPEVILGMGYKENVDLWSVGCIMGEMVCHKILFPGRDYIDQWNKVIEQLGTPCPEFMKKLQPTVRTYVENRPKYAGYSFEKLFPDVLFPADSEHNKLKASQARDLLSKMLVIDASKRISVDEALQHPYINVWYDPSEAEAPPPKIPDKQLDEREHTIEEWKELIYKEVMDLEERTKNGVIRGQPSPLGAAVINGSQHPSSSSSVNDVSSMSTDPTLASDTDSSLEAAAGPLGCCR
Chain of Mitogen-activated protein kinase 9 (P45984 whole entry): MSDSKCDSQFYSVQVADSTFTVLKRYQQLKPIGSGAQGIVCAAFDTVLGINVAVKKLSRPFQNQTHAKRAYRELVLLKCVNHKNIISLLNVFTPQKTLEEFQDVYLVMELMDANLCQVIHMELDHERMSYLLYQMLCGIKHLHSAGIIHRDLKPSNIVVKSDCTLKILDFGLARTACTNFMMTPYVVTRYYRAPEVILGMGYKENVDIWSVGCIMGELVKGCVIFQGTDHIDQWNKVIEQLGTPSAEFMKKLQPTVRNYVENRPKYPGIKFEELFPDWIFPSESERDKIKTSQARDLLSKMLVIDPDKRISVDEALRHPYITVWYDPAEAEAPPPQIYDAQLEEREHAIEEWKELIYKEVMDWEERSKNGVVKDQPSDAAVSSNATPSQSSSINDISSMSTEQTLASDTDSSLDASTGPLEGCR
Chain of Mitogen-activated protein kinase 14 (Q16539 whole entry): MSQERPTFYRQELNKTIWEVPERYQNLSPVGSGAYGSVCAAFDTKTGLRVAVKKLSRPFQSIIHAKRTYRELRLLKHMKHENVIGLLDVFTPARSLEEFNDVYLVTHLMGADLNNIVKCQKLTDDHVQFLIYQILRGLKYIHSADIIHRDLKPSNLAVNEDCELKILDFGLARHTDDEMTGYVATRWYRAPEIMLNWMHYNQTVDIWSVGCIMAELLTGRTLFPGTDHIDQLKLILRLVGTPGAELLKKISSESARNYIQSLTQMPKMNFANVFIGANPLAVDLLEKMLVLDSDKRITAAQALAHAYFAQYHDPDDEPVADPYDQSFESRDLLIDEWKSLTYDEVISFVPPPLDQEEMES
Chain of Mitogen-activated protein kinase 8 (Mus musculus, UniProt Q91Y86) (Q91Y86 whole entry): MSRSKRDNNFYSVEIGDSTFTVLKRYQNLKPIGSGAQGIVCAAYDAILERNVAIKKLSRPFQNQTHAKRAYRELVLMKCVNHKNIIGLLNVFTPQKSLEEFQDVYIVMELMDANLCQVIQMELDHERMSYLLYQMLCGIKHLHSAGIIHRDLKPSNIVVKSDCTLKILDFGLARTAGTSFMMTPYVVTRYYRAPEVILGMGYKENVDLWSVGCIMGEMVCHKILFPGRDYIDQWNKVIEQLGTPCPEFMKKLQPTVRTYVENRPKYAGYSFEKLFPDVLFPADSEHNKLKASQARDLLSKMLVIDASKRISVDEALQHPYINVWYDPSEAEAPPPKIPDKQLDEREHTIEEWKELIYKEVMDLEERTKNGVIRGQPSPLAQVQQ
Chain of Leucine-rich repeat serine/threonine-protein kinase 2 (Q5S007 whole entry): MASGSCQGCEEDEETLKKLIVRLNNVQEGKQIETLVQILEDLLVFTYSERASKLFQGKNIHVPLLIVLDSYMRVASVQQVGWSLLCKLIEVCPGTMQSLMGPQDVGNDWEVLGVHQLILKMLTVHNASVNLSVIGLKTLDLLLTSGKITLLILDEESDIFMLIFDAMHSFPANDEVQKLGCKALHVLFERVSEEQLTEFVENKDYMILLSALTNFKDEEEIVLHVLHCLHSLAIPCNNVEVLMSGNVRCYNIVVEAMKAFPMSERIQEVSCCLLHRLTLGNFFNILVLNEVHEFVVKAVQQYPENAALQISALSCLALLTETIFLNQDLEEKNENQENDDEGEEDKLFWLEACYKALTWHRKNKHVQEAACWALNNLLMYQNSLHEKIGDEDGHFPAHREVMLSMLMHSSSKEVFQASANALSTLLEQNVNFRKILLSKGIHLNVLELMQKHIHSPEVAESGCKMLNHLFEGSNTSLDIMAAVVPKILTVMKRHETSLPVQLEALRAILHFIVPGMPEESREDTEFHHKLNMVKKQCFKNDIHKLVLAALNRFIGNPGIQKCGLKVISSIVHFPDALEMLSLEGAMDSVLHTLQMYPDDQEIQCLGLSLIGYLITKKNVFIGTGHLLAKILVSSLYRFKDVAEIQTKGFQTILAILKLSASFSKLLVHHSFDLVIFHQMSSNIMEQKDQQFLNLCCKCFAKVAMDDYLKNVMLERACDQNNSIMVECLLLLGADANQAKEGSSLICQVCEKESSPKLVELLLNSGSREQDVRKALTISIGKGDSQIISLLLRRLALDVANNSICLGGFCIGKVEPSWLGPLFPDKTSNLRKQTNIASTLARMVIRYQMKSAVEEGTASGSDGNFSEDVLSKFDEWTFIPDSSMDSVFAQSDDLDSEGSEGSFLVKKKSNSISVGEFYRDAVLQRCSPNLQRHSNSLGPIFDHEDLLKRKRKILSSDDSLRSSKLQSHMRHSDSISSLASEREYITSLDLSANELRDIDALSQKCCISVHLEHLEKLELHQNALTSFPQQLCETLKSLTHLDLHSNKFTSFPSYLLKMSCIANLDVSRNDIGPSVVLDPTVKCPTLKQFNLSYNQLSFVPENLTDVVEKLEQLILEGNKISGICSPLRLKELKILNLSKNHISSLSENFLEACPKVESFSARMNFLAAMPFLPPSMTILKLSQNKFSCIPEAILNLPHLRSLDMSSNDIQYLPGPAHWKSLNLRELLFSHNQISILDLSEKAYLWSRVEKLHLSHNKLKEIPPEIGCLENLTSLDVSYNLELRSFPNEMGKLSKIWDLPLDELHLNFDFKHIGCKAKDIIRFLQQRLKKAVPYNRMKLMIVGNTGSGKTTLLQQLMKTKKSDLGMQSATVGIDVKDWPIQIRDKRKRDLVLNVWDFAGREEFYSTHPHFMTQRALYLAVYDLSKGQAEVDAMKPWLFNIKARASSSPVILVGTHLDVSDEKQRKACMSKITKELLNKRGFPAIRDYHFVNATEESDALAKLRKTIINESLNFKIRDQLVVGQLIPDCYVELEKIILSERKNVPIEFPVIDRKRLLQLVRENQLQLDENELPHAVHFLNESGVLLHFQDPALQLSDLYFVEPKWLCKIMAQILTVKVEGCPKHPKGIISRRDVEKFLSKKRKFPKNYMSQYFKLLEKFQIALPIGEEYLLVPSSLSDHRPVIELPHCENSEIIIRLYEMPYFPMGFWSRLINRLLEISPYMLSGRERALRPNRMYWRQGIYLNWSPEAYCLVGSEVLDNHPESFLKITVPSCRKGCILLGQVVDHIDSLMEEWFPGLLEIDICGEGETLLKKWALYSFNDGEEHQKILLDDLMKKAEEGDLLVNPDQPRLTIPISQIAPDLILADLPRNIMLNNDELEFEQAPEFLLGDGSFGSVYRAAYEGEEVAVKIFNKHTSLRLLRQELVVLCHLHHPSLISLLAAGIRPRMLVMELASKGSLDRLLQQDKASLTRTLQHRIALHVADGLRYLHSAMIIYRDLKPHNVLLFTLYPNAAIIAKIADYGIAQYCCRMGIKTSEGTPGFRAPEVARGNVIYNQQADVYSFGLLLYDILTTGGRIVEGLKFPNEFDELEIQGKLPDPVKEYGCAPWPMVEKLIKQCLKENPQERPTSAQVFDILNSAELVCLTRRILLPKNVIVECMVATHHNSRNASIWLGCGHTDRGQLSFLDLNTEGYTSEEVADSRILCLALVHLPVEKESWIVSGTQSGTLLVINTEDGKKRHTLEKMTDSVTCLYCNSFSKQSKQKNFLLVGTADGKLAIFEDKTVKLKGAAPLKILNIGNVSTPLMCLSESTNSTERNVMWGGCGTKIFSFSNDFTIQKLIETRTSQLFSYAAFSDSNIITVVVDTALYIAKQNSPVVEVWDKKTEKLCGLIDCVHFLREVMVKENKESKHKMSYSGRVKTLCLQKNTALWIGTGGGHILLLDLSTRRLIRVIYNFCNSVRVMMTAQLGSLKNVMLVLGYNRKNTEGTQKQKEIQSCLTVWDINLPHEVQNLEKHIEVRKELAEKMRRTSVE

Molecule: CN(C)C/C=C/C(=O)Nc1cccc(C(=O)Nc2ccc(Nc3nccc(-c4c(-c5ccccc5)nn5ccccc45)n3)cc2)c1
- EC50 [3]: 8.6 nM
- EC50 [4]: 48 nM

Molecule: CSc1nc(C)c(-c2ccnc(Nc3ccc(N4CCOCC4)cc3)c2)[nH]1
- IC50 [1]: 184 nM
- IC50 [8]: > 10000 nM

Molecule: O=C(CSc1c(-c2ccccc2)c2cc(Cl)ccc2[nH]c1=O)NC1CCCC1
- IC50 [1]: 58.2 nM

Molecule: H-PKRPTTLNLFRRRQRRKKRG-OH
- IC50 [5]: 1200 nM
- IC50 [6]: 1160 nM
- IC50 [7]: 92 nM

Molecule: C=CC(=O)Nc1cccc(C(=O)Nc2ccc(Nc3cc(-c4c(C)nc(SC)n4C)ccn3)cc2)c1
- IC50 [1]: 2000 nM
- IC50 [8]: 1950 nM

Molecule: O=c1c(O)c(-c2cc(O)c(O)c(CO)c2)oc2cc(O)c(O)c(O)c12
- IC50 [11]: 12200 nM

Molecule: O=c1c(O)c(-c2ccc(O)c(O)c2)oc2cc(O)c(O)c(O)c12 [QUERCETAGETIN]
- Activity [15]: 73%
- IC50 [16]: 4600 nM
- Activity [17]: 46.7%
- Activity [18]: 32%

Further lines, results first:

- IC50 [1]: 99 nM
- IC50 [2]: 12 nM
Molecule: CC(C)CN(CC(=O)NCCCCCCNC(=O)c1ccc(-c2n[nH]c3ccccc23)cc1)C(=O)CNC(=O)C1COc2ccccc2C1 (stereo unspecified)

- IC50 [5]: 1200 nM
- IC50 [6]: 1100 nM
- IC50 [7]: 89 nM
Molecule: CC[C@H](C)[C@H](NC(=O)[C@@H]1CCCN1)C(=O)N[C@@H](CS)C(=O)N[C@@H](CCCNC(=N)N)C(=O)N1CCC[C@H]1C(=O)N[C@H](C(=O)N[C@H](C(=O)N[C@@H](CC(C)C)C(=O)N[C@@H](CC(N)=O)C(=O)N[C@@H](CC(C)C)C(=O)N[C@@H](Cc1ccccc1)C(=O)NCCCCCC(=O)N[C@@H](CCCNC(=N)N)C(=O)N[C@@H](CCCNC(=N)N)C(=O)N[C@@H](C)C(=O)N[C@@H](CCCNC(=N)N)C(=O)N[C@@H](CCCNC(=N)N)C(=O)N[C@@H](C)C(=O)N[C@@H](CCCNC(=N)N)C(=O)N[C@@H](CCCNC(=N)N)C(=O)N[C@@H](CCCNC(=N)N)C(=O)O)[C@@H](C)O)[C@@H](C)O (H-PICRPTTLNLF[Ahx]RRARRARRR-OH)

- IC50 [9]: 31.9 nM
- IC50 [10]: 507 nM
Molecule: O=[N+]([O-])c1cnc(Sc2nnc(O)n2-c2ccc3c(c2)OCCO3)s1

- IC50 [11]: 3400 nM
Molecule: O=c1c(O)c(-c2cc(O)c(O)c(O)c2)oc2cc(O)c(O)c(O)c12

- IC50 [12]: 55 nM
- IC50 [13]: 1400 nM
Molecule: Cc1ccc(NC(=O)c2cccc(-n3cc(NC(=O)Nc4ccccc4Cl)cn3)c2)cn1

- IC50 [14]: 280 nM
Molecule: COCCNc1nnc(Sc2ncc([N+](=O)[O-])s2)s1
